Data taken from US11912705B2, “Cathinone derivatives, pharmaceutical formulations, and methods” (The Corporation of Mercer University, priority 2020, dated 2024).
Several values for one entry are separate records, joined by “and”; a condition that tells them apart may be missing. Equal entries are not always repeated. Where two headings read alike, the source gives them in different places.

How the values were obtained:
human M3R = target: T1, human M3R (Homo sapiens, UniProt P20309); experiment: biochemical; type: binding
T1 construct: host or cells: HEK293 (CRL-1573, ATCC), transient
T1 sequence (P20309 whole entry): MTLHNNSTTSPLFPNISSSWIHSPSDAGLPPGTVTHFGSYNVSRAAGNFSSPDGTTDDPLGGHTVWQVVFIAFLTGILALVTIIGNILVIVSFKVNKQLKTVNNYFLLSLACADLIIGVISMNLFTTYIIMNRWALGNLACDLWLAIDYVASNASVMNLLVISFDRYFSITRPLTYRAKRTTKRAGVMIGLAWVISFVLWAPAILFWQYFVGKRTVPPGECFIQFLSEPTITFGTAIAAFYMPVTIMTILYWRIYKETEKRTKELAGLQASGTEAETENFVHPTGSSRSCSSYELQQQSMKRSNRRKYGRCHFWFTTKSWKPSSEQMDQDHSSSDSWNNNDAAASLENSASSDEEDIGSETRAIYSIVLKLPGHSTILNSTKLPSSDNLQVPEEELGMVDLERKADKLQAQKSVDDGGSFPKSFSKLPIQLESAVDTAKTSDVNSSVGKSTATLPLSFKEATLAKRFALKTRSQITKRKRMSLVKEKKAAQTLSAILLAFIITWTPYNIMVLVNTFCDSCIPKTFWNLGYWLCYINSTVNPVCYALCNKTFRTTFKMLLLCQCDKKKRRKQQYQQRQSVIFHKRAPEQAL
Procedure: (§1) Radioligand Competition Binding: Radioligand competition binding assays were conducted using membranes collected from transiently transfected HEK293 cells (P<20 from a procured stock, CRL-1573, ATCC, Manassas, Va., USA) as previously described (Chen, Y., et al. Drug Test Anal 11, 990-998). Briefly, cells ˜90% confluent in 10 cm plates were transfected with 5 μg human M1R, M2R, M3R, M4R or […] cDNA (cDNA resource center, Bloomsburg, Pa., USA) using a lipid-based method (LipoD293 reagent, SignaGen Laboratories, Rockville, Md., USA). Membranes were collected by centrifugation about 48 hours later and stored at −80° C. until used. […] After a 90-minute incubation at room temperature on a shaker, contents from the plates were rapidly filtered through GF/B fiberglass filter mats, pre-soaked with ice cold 50 mM Tris buffer (pH 7.4), using a Microbeta Filtermat-96 cell harvester (Perkin Elmer, Waltham, Mass., USA). Approximately 200 mL of ice cold, 50 mM Tris buffer was then vacuumed through filter mats to wash away unbound radioligand. Filter mats were dried on a hot plate and soaked in Betaplate (Perkin Elmer, Waltham, Mass., USA) scintillation fluid in plastic bags. Bags were sealed and placed in cassettes. Radioactivity was measured in a Microbeta2 Microplate Counter (Perkin Elmer, Waltham, Mass., USA), and counts per minute corresponding to each well on the plates were recorded. For full dose-response competition binding assays, increasing half-log unit concentrations of five unsubstituted PSCs were tested at M2Rs and M1Rs, with the same procedures described above.
(§2) Curve Fitting and Statistical Analyses: All data were analyzed by GraphPad 8.3.0 (San Diego, Calif., USA). Ki values were determined from data fit to both one- and two-site models. […] EC50 and IC50 values from functional assays were determined from data fit to the log(agonist) vs. response (three parameters) or log(inhibitor) vs. response (three parameters) model, respectively. Kb values were calculated from IC50 values using the Cheng-Prusoff equation with modification (see, e.g., Leff, P., and Dougall, I. G. (1993) Trends Pharmacol Sci 14, 110-112): Kb=IC50/((2+([A]/[A50])nH)1/nH−1)

human M1R = target: T2, human M1R (Homo sapiens, UniProt P11229); experiment: biochemical; type: binding
T2 construct: host or cells: HEK293 (CRL-1573, ATCC), transient
T2 sequence (P11229 1-460): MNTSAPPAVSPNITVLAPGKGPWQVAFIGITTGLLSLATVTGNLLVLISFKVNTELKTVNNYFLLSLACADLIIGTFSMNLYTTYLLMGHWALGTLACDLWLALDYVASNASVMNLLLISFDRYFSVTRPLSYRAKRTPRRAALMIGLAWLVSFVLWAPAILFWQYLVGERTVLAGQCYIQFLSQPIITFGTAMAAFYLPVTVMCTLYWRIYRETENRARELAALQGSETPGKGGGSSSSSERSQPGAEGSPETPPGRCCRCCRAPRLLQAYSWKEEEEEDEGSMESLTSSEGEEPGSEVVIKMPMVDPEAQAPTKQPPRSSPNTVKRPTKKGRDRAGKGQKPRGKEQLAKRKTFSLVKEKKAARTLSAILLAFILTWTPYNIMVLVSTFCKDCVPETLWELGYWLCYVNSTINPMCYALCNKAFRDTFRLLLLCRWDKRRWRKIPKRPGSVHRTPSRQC
Procedure: as §1, §2

human M2R = target: T3, human M2R (Homo sapiens, UniProt P08172); experiment: [3H]Scopolamine radioligand competition binding at M2R; settings: for M2 Selectivity: range of Ki ratios of M1, M3, M4, M5 versus M2
T3 construct: host or cells: HEK293 (CRL-1573, ATCC), transient
T3 sequence (P08172 1-466): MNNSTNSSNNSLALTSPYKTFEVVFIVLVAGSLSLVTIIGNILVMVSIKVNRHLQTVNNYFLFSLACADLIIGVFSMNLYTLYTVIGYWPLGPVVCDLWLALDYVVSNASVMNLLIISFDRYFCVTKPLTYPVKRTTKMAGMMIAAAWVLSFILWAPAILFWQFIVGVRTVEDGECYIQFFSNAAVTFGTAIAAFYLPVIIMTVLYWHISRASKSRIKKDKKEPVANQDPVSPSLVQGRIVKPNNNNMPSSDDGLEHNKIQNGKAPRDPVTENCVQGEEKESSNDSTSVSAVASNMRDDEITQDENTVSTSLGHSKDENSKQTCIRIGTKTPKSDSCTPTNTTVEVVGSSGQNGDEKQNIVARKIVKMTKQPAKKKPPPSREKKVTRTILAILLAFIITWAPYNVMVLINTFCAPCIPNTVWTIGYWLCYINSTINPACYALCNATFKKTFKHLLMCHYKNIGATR
Procedure: as §1, §2

human M4R = target: T4, human M4R (Homo sapiens, UniProt P08173); experiment: [3H]Scopolamine radioligand competition binding at M4R
T4 construct: host or cells: HEK293 (CRL-1573, ATCC), transient
T4 sequence (P08173 1-479): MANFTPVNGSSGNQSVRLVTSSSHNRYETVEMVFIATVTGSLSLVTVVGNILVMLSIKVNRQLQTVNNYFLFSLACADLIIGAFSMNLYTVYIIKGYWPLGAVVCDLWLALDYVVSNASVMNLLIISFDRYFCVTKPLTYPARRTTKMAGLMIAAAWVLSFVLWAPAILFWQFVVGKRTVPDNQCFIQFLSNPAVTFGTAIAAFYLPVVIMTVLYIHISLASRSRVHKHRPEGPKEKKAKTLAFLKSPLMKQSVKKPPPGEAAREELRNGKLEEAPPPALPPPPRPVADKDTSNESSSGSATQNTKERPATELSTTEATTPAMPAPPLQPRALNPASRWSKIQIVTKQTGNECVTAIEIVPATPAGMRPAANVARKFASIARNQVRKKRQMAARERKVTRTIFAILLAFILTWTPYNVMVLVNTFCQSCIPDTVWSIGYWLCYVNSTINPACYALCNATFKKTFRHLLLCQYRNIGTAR
Procedure: as §1, §2

[1] = human muscarinic M3 (N = 5), [3H]-N-methylscopolamine, read-out: Affinities, Ki ± SEM, nM M3
[2] = human muscarinic M1 (N = 6), [3H]-N-methylscopolamine, read-out: Affinities, Ki ± SEM, nM M1
[3] = Affinities, Ki ± SEM, nM M2, human muscarinic M2 (N = 9), [3H]-N-methylscopolamine

SMILES | Ki (human M3R; [1]) [nM] | Ki (human M1R; [2]) [nM] | Ki (human M2R; [3]) | M2 Selectivity (human M2R) | Ki (human M4R) [nM] | Ki (human M3R; estimate from 1 and 10 μM concentrations (N = 2), N.C. = <5% displacement of radioligand at 10 μM, read-out: estimated pKi at M3R (converted)) [nM] | fold increase in M1R affinity from α-PPP (human M1R) [fold] | Ki (human M1R; estimate from 1 and 10 μM concentrations (N = 2), N.C. = <5% displacement of radioligand at 10 μM, read-out: estimated pKi at M1R (converted)) [nM] | Ki (human M1R; full dose-response [3H]Scopolamine competition binding, α-PPP and α-PBP interpolated, read-out: pKi at M1R (converted)) [nM] | fold increase in M2R affinity compared to α-PPP (human M2R) [fold] | Ki (human M2R; Ki at M2Rs, full dose-response [3H]Scopolamine competition binding) [nM] | Ki (human M2R; estimated pKi at M2R, estimate from 1 and 10 μM concentrations (N = 2), N.C. = <5% displacement of radioligand at 10 μM) [nM]
CCCCC(C(=O)c1ccccc1)N1CCCCC1 (stereo not drawn) [Compound (1), 1-phenyl-2-(piperidin-1-yl)hexan-1-one] | 994 | 1010 | 70 nM and 69.9 nM | 9.72-17.76 | 1240 | – | – | – | – | – | – | –
CCCCC(C(=O)c1ccccc1)N1CCCCCC1 (stereo not drawn) [Compound (2), 2-(azepan-1-yl)-1-phenylhexan-1-one] | 988 | 1490 | 90 nM and 89.5 nM | 11.04-16.63 | 997 | – | – | – | – | – | – | –
CCCCC(C(=O)c1ccccc1)N1CCCC1 (stereo not drawn) [α-PHP, 1-phenyl-2-(pyrrolidin-1-yl)hexan-1-one] | – | – | – | – | 1950 | 1660 | 121 | 2570 | 1580 | 302 | 251 | 468
